Tests used:
HIV-1IIIB (wild-type) = settings: HIV-1IIIB strain (wild-type virus)
HIV-1 = settings: as described in the literature; cited from earlier work

Compound | IC50 times lower than enfuvirtide (HIV-1IIIB (wild-type)) | IC90 times lower than enfuvirtide (HIV-1IIIB (wild-type)) | IC50 (HIV-1)
CC[C@H](C)[C@H](NC(=O)[C@H](CC(C)C)NC(=O)[C@H](CO)NC(=O)[C@H](Cc1c[nH]cn1)NC(=O)[C@@H](NC(=O)[C@H](CC(C)C)NC(=O)[C@H](CO)NC(=O)[C@@H](NC(=O)[C@H](Cc1ccc(O)cc1)NC(=O)[C@H](CC(N)=O)NC(=O)[C@H](CC(N)=O)NC(=O)[C@@H](NC(=O)[C@H](CCC(=O)O)NC(=O)[C@H](CCCNC(=N)N)NC(=O)[C@H](CC(=O)O)NC(=O)[C@H](Cc1c[nH]c2ccccc12)NC(=O)[C@H](CCC(=O)O)NC(=O)[C@H](CCSC)NC(=O)[C@H](Cc1c[nH]c2ccccc12)NC(C)=O)[C@@H](C)CC)[C@@H](C)O)[C@@H](C)CC)C(=O)N[C@@H](CCC(=O)O)C(=O)N[C@@H](CCC(=O)O)C(=O)N[C@@H](CO)C(=O)N[C@@H](CCC(N)=O)C(=O)N[C@@H](CC(N)=O)C(=O)N[C@@H](CCC(N)=O)C(=O)N[C@@H](CCC(N)=O)C(=O)N[C@@H](CCC(=O)O)C(=O)N[C@@H](CCCCN)C(=O)N[C@@H](CC(N)=O)C(=O)N[C@@H](CCC(=O)O)C(=O)N[C@@H](CCC(N)=O)C(=O)N[C@@H](CCC(=O)O)C(=O)N[C@@H](CC(C)C)C(=O)N[C@@H](CC(C)C)C(=O)NCC(=O)N[C@@H](CO)C(=O)NCC(=O)N[C@@H](CSCC(=O)O[C@H]1CC[C@@]2(C)C(=CC[C@H]3[C@@H]4CC[C@H]([C@H](C)CCCC(C)(C)O)[C@@]4(C)CC[C@@H]32)C1)C(N)=O [C34-HC] | 25 times | 40 times | –
WMEWDREINNYTSL-IHSLIEESQNQQEKNEQELL [C34] | – | – | 1.4 nM

Source: paper PMC6483092 (ACS infectious diseases, 2019)
